Data from US11590116B2 (THERAVANCE BIOPHARMA R&D IP, LLC, priority 2019, dated 2023).

Columns and labels:
[1] = biological target: T1, recombinant human ALK5 (TGF-βR1) protein (Homo sapiens, UniProt P36897); test: Biochemical ALK5 (TGF-βR1) assay to measure pKi (LANCE Ultra ULight kinase assay); settings: apparent pKi from pIC50 by Cheng-Prusoff, read-out: ALK5 pKi (converted)
T1 construct: purchased Life Technologies PR9075A
T1 sequence (P36897 34-503): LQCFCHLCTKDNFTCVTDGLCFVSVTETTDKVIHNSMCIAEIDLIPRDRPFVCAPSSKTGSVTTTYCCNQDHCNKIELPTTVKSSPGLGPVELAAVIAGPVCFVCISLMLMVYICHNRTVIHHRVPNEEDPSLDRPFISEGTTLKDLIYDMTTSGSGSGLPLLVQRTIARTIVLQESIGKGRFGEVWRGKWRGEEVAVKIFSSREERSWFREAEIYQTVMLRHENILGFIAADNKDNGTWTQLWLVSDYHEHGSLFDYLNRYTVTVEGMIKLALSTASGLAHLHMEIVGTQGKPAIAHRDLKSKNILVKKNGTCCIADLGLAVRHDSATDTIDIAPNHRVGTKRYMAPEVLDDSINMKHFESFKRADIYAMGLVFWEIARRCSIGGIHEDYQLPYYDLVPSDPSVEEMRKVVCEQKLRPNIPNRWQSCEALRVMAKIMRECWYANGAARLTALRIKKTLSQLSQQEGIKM
Outline: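 Dose range 10 μM–25 pM; enzyme + compound 60 min RT; ATP added (5× stock 125 μM, 2 mM DTT); 60 min 37 °C; stop with EDTA + Eu anti-phospho-Topo IIα Thr1342 Ab; TR-FRET ex 320/340, em 665 nm. 4-param pIC50 → pKi (Cheng-Prusoff).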

[2] = tested on: TGF-β-stimulated SMAD3 phosphorylation in BEAS-2B cells; test: Cellular ALK5 potency assay, inhibition of TGF-β stimulated pSMAD3 formation in BEAS-2B cells; type: cell-based; settings: Homo sapiens; inhibition of TGF-β stimulated pSMAD3 formation, BEAS-2B cells; read-out: BEAS2B pIC50 (converted)
Outline: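 Cells seeded overnight; rinse with supplemented HBSS; compound 1 h at 37 °C; TGF-β 10 ng/mL final, 30 min; lyse; AlphaLISA acceptor and detector beads 2 h apart, read next day. Potency expressed as pIC50.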

SMILES	Ki [1]	IC50 [2]
Cc1cccc(-c2[nH]cnc2-c2ccc3ncc(-c4csc(C(=O)OC[C@@H]5CCCCN5)c4)cc3c2)n1 [Compound 1213, [(2S)-2-piperidyl]methyl 4-[6-[5-(6-methyl-2-pyridyl)-1H-imidazol-4-yl]-3-quinolyl]thiophene-2-carboxylate]	< 0.0316 nM	25.1 to 158 nM
Cc1cccc(-c2[nH]cnc2-c2ccc3ncc(-c4ccc(C(=O)OCCN5CCC[C@H](N)C5)cn4)cc3c2)n1 [Compound 1214, 2-[(3S)-3-amino-1-piperidyl]ethyl 6-[6-[5-(6-methyl-2-pyridyl)-1H-imidazol-4-yl]-3-quinolyl]pyridine-3-carboxylate]	0.0398 to 0.316 nM	25.1 to 158 nM
Cc1cccc(-c2[nH]ncc2-c2ccc3ncc(C(=O)OC4CCC(N)CC4)cc3c2)n1 (stereo not drawn) [Compound 1216, (4-aminocyclohexyl) 6-[5-(6-methyl-2-pyridyl)-1H-pyrazol-4-yl]quinoline-3-carboxylate]	0.0398 to 0.316 nM	< 20 nM
Cc1cccc(-c2[nH]ncc2-c2ccc3nccc(C(=O)O[C@H]4CC[C@H](N)CC4)c3c2)n1 [Compound 1217, (4-aminocyclohexyl) 6-[5-(6-methyl-2-pyridyl)-1H-pyrazol-4-yl]quinoline-4-carboxylate]	0.398 to 3.16 nM	25.1 to 158 nM
Cc1cccc(-c2[nH]ncc2-c2ccc3ncc(C(=O)O[C@H]4CCNC4)cc3c2)n1 [Compound 1218, [(3S)-pyrrolidin-3-yl]6-[5-(6-methyl-2-pyridyl)-1H-pyrazol-4-yl]quinoline-3-carboxylate]	0.0398 to 0.316 nM	25.1 to 158 nM
Cc1cccc(-c2[nH]cnc2-c2ccc3ncc(-c4csc(C(=O)OC[C@H]5CCCN5)c4)cc3c2)n1 [Compound 1219, [(2R)-pyrrolidin-2-yl]methyl 4-[6-[5-(6-methyl-2-pyridyl)-1H-imidazol-4-yl]-3-quinolyl]thiophene-2-carboxylate]	< 0.0316 nM	25.1 to 158 nM
Cc1cccc(-c2[nH]cnc2-c2ccc3ncc(-c4csc(C(=O)OCCN5CC[C@@H](N)C5)c4)cc3c2)n1 [Compound 1220, 2-[(3R)-3-aminopyrrolidin-1-yl]ethyl 4-[6-[5-(6-methyl-2-pyridyl)-1H-imidazol-4-yl]-3-quinolyl]thiophene-2-carboxylate]	0.0398 to 0.316 nM	25.1 to 158 nM
CN[C@H]1CC[C@H](OC(=O)c2cnc3ccc(-c4cn[nH]c4-c4cccc(C)n4)cc3c2)CC1 [Compound 1221, [4-(methylamino)cyclohexyl] 6-[5-(6-methyl-2-pyridyl)-1H-pyrazol-4-yl]quinoline-3-carboxylate]	0.0398 to 0.316 nM	< 20 nM
Cc1cccc(-c2[nH]cnc2-c2ccc3ncc(-c4csc(C(=O)OCCN5C[C@@H](C)N[C@@H](C)C5)c4)cc3c2)n1 [Compound 1222, 2-[(3S,5R)-3,5-dimethylpiperazin-1-yl]ethyl 4-[6-[5-(6-methyl-2-pyridyl)-1H-imidazol-4-yl]-3-quinolyl]thiophene-2-carboxylate]	0.0398 to 0.316 nM	25.1 to 158 nM
Cc1cccc(-c2[nH]ncc2-c2ccc3nccc(C(=O)OC[C@H]4CCCN4)c3c2)n1 [Compound 1223, [(2R)-pyrrolidin-2-yl]methyl 6-[5-(6-methyl-2-pyridyl)-1H-pyrazol-4-yl]quinoline-4-carboxylate]	3.98 to 31.6 nM	25.1 to 158 nM
Cc1cccc(-c2[nH]cnc2-c2ccc3ncc(-c4ccc(C(=O)OC[C@H]5CCCNC5)cn4)cc3c2)n1 [Compound 1224, [(3S)-3-piperidyl]methyl 6-[6-[5-(6-methyl-2-pyridyl)-1H-imidazol-4-yl]-3-quinolyl]pyridine-3-carboxylate]	0.0398 to 0.316 nM	25.1 to 158 nM
Cc1cccc(-c2[nH]ncc2-c2ccc3nccc(C(=O)OCC4CCNCC4)c3c2)n1 [Compound 1225, 4-piperidylmethyl 6-[5-(6-methyl-2-pyridyl)-1H-pyrazol-4-yl]quinoline-4-carboxylate]	0.0398 to 0.316 nM	25.1 to 158 nM
Cc1cccc(-c2[nH]cnc2-c2ccc3ncc(-c4nc(C(=O)OCCN5C[C@@H](C)N[C@@H](C)C5)cs4)cc3c2)n1 [Compound 1226, 2-[(3R,5S)-3,5-dimethylpiperazin-1-yl]ethyl 2-[6-[5-(6-methyl-2-pyridyl)-1H-imidazol-4-yl]-3-quinolyl]thiazole-4-carboxylate]	0.0398 to 0.316 nM	25.1 to 158 nM
Cc1cccc(-c2[nH]ncc2-c2ccc3ncc(C(=O)O[C@H]4CC[C@@H](N)CC4)cc3c2)n1 [Compound 1228, (4-aminocyclohexyl) 6-[5-(6-methyl-2-pyridyl)-1H-pyrazol-4-yl]quinoline-3-carboxylate]	0.0398 to 0.316 nM	25.1 to 158 nM
COC(=O)CNc1cnc2ccc(-c3nc[nH]c3-c3cccc(C)n3)cc2c1 [Compound 1229, methyl 2-[[6-[5-(6-methyl-2-pyridyl)-1H-imidazol-4-yl]-3-quinolyl]amino]acetate]	0.0398 to 0.316 nM	25.1 to 158 nM
Cc1cccc(-c2[nH]ncc2-c2ccc3ncc(C(=O)OC[C@H]4CCCNC4)cc3c2)n1 [Compound 1230, [(3S)-3-piperidyl]methyl 6-[5-(6-methyl-2-pyridyl)-1H-pyrazol-4-yl]quinoline-3-carboxylate]	0.0398 to 0.316 nM	25.1 to 158 nM
Cc1cccc(-c2[nH]cnc2-c2ccc3ncc(-c4csc(C(=O)O[C@H]5CC[C@@](C)(N)CC5)c4)cc3c2)n1 [Compound 1232, (4-amino-4-methyl-cyclohexyl) 4-[6-[5-(6-methyl-2-pyridyl)-1H-imidazol-4-yl]-3-quinolyl]thiophene-2-carboxylate]	< 0.0316 nM	25.1 to 158 nM
Cc1cccc(-c2[nH]ncc2-c2ccc3nccc(C(=O)OC[C@@H]4CCCN4)c3c2)n1 [Compound 1233, [(2S)-pyrrolidin-2-yl]methyl 6-[5-(6-methyl-2-pyridyl)-1H-pyrazol-4-yl]quinoline-4-carboxylate]	0.0398 to 0.316 nM	25.1 to 158 nM
Cc1cccc(-c2[nH]ncc2-c2ccc3ncc(C(=O)OCCN4CCN5CCCC5C4)cc3c2)n1 (stereo not drawn) [Compound 1234, 2-(3,4,6,7,8,8a-hexahydro-1H-pyrrolo[1,2-a]pyrazin-2-yl)ethyl 6-[5-(6-methyl-2-pyridyl)-1H-pyrazol-4-yl]quinoline-3-carboxylate]	0.0398 to 0.316 nM	25.1 to 158 nM
Cc1cccc(-c2[nH]cnc2-c2ccc3ncc(-c4csc(C(=O)OCCNC5CNC5)c4)cc3c2)n1 [Compound 1235, 2-(azetidin-3-ylamino)ethyl 4-[6-[5-(6-methyl-2-pyridyl)-1H-imidazol-4-yl]-3-quinolyl]thiophene-2-carboxylate]	0.0398 to 0.316 nM	25.1 to 158 nM
Cc1cccc(-c2[nH]cnc2-c2ccc3ncc(-c4ncc(C(=O)OCC5CNC5)s4)cc3c2)n1 [Compound 1236, azetidin-3-ylmethyl 2-[6-[5-(6-methyl-2-pyridyl)-1H-imidazol-4-yl]-3-quinolyl]thiazole-5-carboxylate]	0.0398 to 0.316 nM	25.1 to 158 nM
Cc1cccc(-c2[nH]ncc2-c2ccc3nccc(C(=O)OC4CNC4)c3c2)n1 [Compound 1237, azetidin-3-yl 6-[5-(6-methyl-2-pyridyl)-1H-pyrazol-4-yl]quinoline-4-carboxylate]	0.0398 to 0.316 nM	25.1 to 158 nM
Cc1cccc(-c2[nH]ncc2-c2ccc3ncc(C(=O)OCCN4C[C@@H](C)N[C@@H](C)C4)cc3c2)n1 [Compound 1238, 2-[(3S,5R)-3,5-dimethylpiperazin-1-yl]ethyl 6-[5-(6-methyl-2-pyridyl)-1H-pyrazol-4-yl]quinoline-3-carboxylate]	0.0398 to 0.316 nM	25.1 to 158 nM
Cc1cccc(-c2[nH]ncc2-c2ccc3ncc(C(=O)OCCN4CCC[C@@H](N)C4)cc3c2)n1 [Compound 1241, 2-[(3R)-3-amino-1-piperidyl]ethyl 6-[5-(6-methyl-2-pyridyl)-1H-pyrazol-4-yl]quinoline-3-carboxylate]	0.0398 to 0.316 nM	25.1 to 158 nM
Cc1cccc(-c2[nH]cnc2-c2ccc3ncc(-c4csc(C(=O)OCCN5CCNCC5)c4)cc3c2)n1 [Compound 1242, 2-piperazin-1-ylethyl 4-[6-[5-(6-methyl-2-pyridyl)-1H-imidazol-4-yl]-3-quinolyl]thiophene-2-carboxylate]	< 0.0316 nM	25.1 to 158 nM
Cc1cccc(-c2[nH]cnc2-c2ccc3ncc(-c4csc(C(=O)O[C@H]5C[C@@H](N)C5)c4)cc3c2)n1 [Compound 1243, (3-aminocyclobutyl) 4-[6-[5-(6-methyl-2-pyridyl)-1H-imidazol-4-yl]-3-quinolyl]thiophene-2-carboxylate]	< 0.0316 nM	25.1 to 158 nM
Cc1cccc(-c2[nH]cnc2-c2ccc3ncc(-c4ccc(C(=O)OC[C@H]5CCCCN5)cn4)cc3c2)n1 [Compound 1244, [(2R)-2-piperidyl]methyl 6-[6-[5-(6-methyl-2-pyridyl)-1H-imidazol-4-yl]-3-quinolyl]pyridine-3-carboxylate]	0.0398 to 0.316 nM	25.1 to 158 nM
